Measured values taken from ChEMBL document CHEMBL5724558, “Image-based profiling of drug vulnerabilities in CRC organoids” (2024).
“And” between values parts separate entries of the source, which are not always exact repeats. Equal entries are not always repeated.

Legend:
Format in all cases: functional, Homo sapiens
Set-up in all cases: dose or concentration left out as unconfirmed
Colon cancer organoid [1] = experiment: (§1) Image-based profiling of donated chemical probes and chemogenomic kinase set in O06 CRC organoid. Image analysis is performed on the sum area metric, and the data were normalized to the DMSO control. After imaging the organoid viability is measured using the OneGloEX Luciferase Assay System. The normalized viability data and sum area are reported.
Colon cancer organoid [2] = experiment: as §1, with “O09” for “O06”
Colon cancer organoid [3] = experiment: as §1, with “O21” for “O06”

Cc1cc(NC(=O)c2cccc(S(F)(F)(F)(F)F)c2)cc(-n2ccn3nc(-c4cccnc4)cc23)c1 [BAY-309]
Cell Viability (Colon cancer organoid [1]; Replication number 1): 100.937% and 113.583%
Cell Viability (Colon cancer organoid [1]; Replication number 2): 92.9473% and 106.13%
Cell Viability (Colon cancer organoid [2]; Replication number 1): 161.366% and 84.5766%
Cell Viability (Colon cancer organoid [2]; Replication number 2): 126.224% and 101.643%
Cell Viability (Colon cancer organoid [3]; Replication number 1): 93.9876% and 96.6365%
Cell Viability (Colon cancer organoid [3]; Replication number 2): 97.5385% and 109.184%

CC1=CC(C)=[N+]2C1=C(CCCCc1cn(CC(=O)N3CCc4nc(NC(=O)[C@H]5CCN(C#N)C5)sc4C3)nn1)c1c(C)cc(C)n1[B-]2(F)F
Cell Viability (Colon cancer organoid [1]; Replication number 1): 105.892% and 120.972%
Cell Viability (Colon cancer organoid [1]; Replication number 2): 115.912% and 117.492%
Cell Viability (Colon cancer organoid [2]; Replication number 1): 63.7608% and 86.8451%
Cell Viability (Colon cancer organoid [2]; Replication number 2): 67.8399% and 91.9905%
Cell Viability (Colon cancer organoid [3]; Replication number 1): 110.953% and 108.585%
Cell Viability (Colon cancer organoid [3]; Replication number 2): 96.9264% and 89.225%

O=C(O)c1ccc(-c2coc3ncc(-c4ccccc4)cc23)cc1Cl
Cell Viability (Colon cancer organoid [1]; Replication number 1): 151.185% and 107.979%
Cell Viability (Colon cancer organoid [1]; Replication number 2): 124.809% and 78.3539%
Cell Viability (Colon cancer organoid [2]; Replication number 1): 308.758% and 113.836%
Cell Viability (Colon cancer organoid [2]; Replication number 2): 206.023% and 93.0484%
Cell Viability (Colon cancer organoid [3]; Replication number 1): 190.076% and 113.91%
Cell Viability (Colon cancer organoid [3]; Replication number 2): 188.696% and 75.9402%

C[C@H](NC(=O)c1cnc2n1[C@](C)(Cc1ccc(C#N)cc1)C(=O)N2c1cc(Cl)c(F)c(Cl)c1)C(=O)NC1(c2ccccn2)CC1 [BI 1950]
Cell Viability (Colon cancer organoid [1]; Replication number 1): 114.343% and 119.672%
Cell Viability (Colon cancer organoid [1]; Replication number 2): 141.649% and 119.396%
Cell Viability (Colon cancer organoid [2]; Replication number 1): 132.005% and 114.441%
Cell Viability (Colon cancer organoid [2]; Replication number 2): 125.066% and 107.777%
Cell Viability (Colon cancer organoid [3]; Replication number 1): 97.6765% and 100.712%
Cell Viability (Colon cancer organoid [3]; Replication number 2): 88.7319% and 89.7959%

CN(C)C(=O)c1sc2nc(N3CCC(S(C)(=O)=O)CC3)cc(C(F)(F)F)c2c1N [BI-5026]
Cell Viability (Colon cancer organoid [1]; Replication number 1): 118.242% and 106.64%
Cell Viability (Colon cancer organoid [1]; Replication number 2): 81.5646% and 70.3988%
Cell Viability (Colon cancer organoid [2]; Replication number 1): 136.068% and 99.7874%
Cell Viability (Colon cancer organoid [2]; Replication number 2): 102.802% and 111.221%
Cell Viability (Colon cancer organoid [3]; Replication number 1): 97.3% and 81.8479%
Cell Viability (Colon cancer organoid [3]; Replication number 2): 110.845% and 100.952%

Nc1nc(NCc2ccccc2)nc(-c2ccccc2CO)n1 [Ogerin]
Cell Viability (Colon cancer organoid [1]; Replication number 1): 105.073% and 119.514%
Cell Viability (Colon cancer organoid [1]; Replication number 2): 91.1794% and 124.7%
Cell Viability (Colon cancer organoid [2]; Replication number 1): 84.1314% and 95.0982%
Cell Viability (Colon cancer organoid [2]; Replication number 2): 82.0321% and 100.912%
Cell Viability (Colon cancer organoid [3]; Replication number 1): 116.019% and 92.2153%
Cell Viability (Colon cancer organoid [3]; Replication number 2): 95.1453% and 93.8137%

COc1cccc2c1c(O)c(C(=O)N(C)c1ccc(C(F)(F)F)cc1)c(=O)n2C [TASQUINIMOD]
Cell Viability (Colon cancer organoid [1]; Replication number 1): 48.5879% and 75.1409%
Cell Viability (Colon cancer organoid [1]; Replication number 2): 109.678% and 108.736%
Cell Viability (Colon cancer organoid [2]; Replication number 1): 111.782% and 95.2859%
Cell Viability (Colon cancer organoid [2]; Replication number 2): 96.4426% and 87.5198%
Cell Viability (Colon cancer organoid [3]; Replication number 1): 88.1859% and 108.165%
Cell Viability (Colon cancer organoid [3]; Replication number 2): 81.4636% and 102.566%

CC(C)C(=O)Nc1n[nH]c2cc(-c3cccc(NS(=O)(=O)C4CC4)c3)ccc12
Cell Viability (Colon cancer organoid [1]; Replication number 1): 98.7656% and 120.438%
Cell Viability (Colon cancer organoid [1]; Replication number 2): 86.9624% and 76.1389%
Cell Viability (Colon cancer organoid [2]; Replication number 1): 171.396% and 120.765%
Cell Viability (Colon cancer organoid [2]; Replication number 2): 122.795% and 96.2655%
Cell Viability (Colon cancer organoid [3]; Replication number 1): 108.143% and 100.309%
Cell Viability (Colon cancer organoid [3]; Replication number 2): 99.3973% and 100.309%

COCCN1CCC(c2cc(CN(C)C(=O)c3cccc(Oc4ccccc4)c3)ccn2)CC1
Cell Viability (Colon cancer organoid [1]; Replication number 1): 195.683% and 128.295%
Cell Viability (Colon cancer organoid [1]; Replication number 2): 160.805% and 131.439%
Cell Viability (Colon cancer organoid [2]; Replication number 1): 147.027% and 86.0124%
Cell Viability (Colon cancer organoid [2]; Replication number 2): 179.06% and 107.19%
Cell Viability (Colon cancer organoid [3]; Replication number 1): 116.465% and 111.692%
Cell Viability (Colon cancer organoid [3]; Replication number 2): 91.1118% and 90.2148%

CC(C)Oc1ccc(-c2nn([C@@H](C)c3oc4ccc(F)cc4c(=O)c3-c3cccc(F)c3)c3ncnc(N)c23)cc1F [UMBRALISIB]
Cell Viability (Colon cancer organoid [1]; Replication number 1): 88.4125% and 133.76%
Cell Viability (Colon cancer organoid [1]; Replication number 2): 91.2943% and 112.494%
Cell Viability (Colon cancer organoid [2]; Replication number 1): 196.172% and 129.157%
Cell Viability (Colon cancer organoid [2]; Replication number 2): 74.9501% and 109.33%
Cell Viability (Colon cancer organoid [3]; Replication number 1): 111.232% and 144.39%
Cell Viability (Colon cancer organoid [3]; Replication number 2): 124.887% and 154.3%

CN(C)c1ncnc(-c2ccc3nc(Nc4cc(CN5CCN(C(=O)CC(F)(F)F)CC5)ccn4)[nH]c3c2)c1Cl [BAY-440]
Cell Viability (Colon cancer organoid [1]; Replication number 1): 91.3612% and 98.3607%
Cell Viability (Colon cancer organoid [1]; Replication number 2): 93.5115% and 120.107%
Cell Viability (Colon cancer organoid [2]; Replication number 1): 134.702% and 130.21%
Cell Viability (Colon cancer organoid [2]; Replication number 2): 215.997% and 118.583%
Cell Viability (Colon cancer organoid [3]; Replication number 1): 107.586% and 105.951%
Cell Viability (Colon cancer organoid [3]; Replication number 2): 93.8566% and 87.7551%

CCOc1cn(-c2ccc(F)cc2C)nc1C(=O)Nc1ccc(Oc2ccnc3cc(OC)c(OC)cc23)c(F)c1
Cell Viability (Colon cancer organoid [1]; Replication number 1): 102.988% and 123.299% and 120.024% and 109.723%
Cell Viability (Colon cancer organoid [1]; Replication number 2): 127.856% and 122.776% and 99.2168% and 90.0771%
Cell Viability (Colon cancer organoid [2]; Replication number 1): 106.171% and 88.0162% and 65.7353% and 75.3%
Cell Viability (Colon cancer organoid [2]; Replication number 2): 96.6425% [middle of 4 runs]
Cell Viability (Colon cancer organoid [3]; Replication number 1): 103.157% and 102.021% and 78.4654% and 79.1638%
Cell Viability (Colon cancer organoid [3]; Replication number 2): 106.966% and 96.7254% and 100.887% and 106.513%

COc1ccc(COc2ccc(Cc3cnc(N)nc3N)cc2OC)cc1 [GW632580X]
Cell Viability (Colon cancer organoid [1]; Replication number 1): 58.2611% and 105.272%
Cell Viability (Colon cancer organoid [1]; Replication number 2): 114.527% and 102.005%
Cell Viability (Colon cancer organoid [2]; Replication number 1): 97.2833% and 91.2576%
Cell Viability (Colon cancer organoid [2]; Replication number 2): 140.582% and 107.98%
Cell Viability (Colon cancer organoid [3]; Replication number 1): 84.7531% and 94.7735%
Cell Viability (Colon cancer organoid [3]; Replication number 2): 111.284% and 94.9982%
